According to patent US20170157135A1 (Novogen Limited, priority 2013, published 2017):

Tests used:
Type in all cases: cell-based
[1] = test system: SKMEL28 melanoma (SK-MeI-28) cells; assay: Cell viability assay (MTT), SKMEL28; conditions: Homo sapiens, SK-MEL-28, 48 hr treatment
Experimental: (§1) Cell viability assays were also conducted to assess the anti-proliferative effects of the anti-tropomyosin compounds. Briefly, cells (1×10^3/well) were plated (96-well) and treated (48 hr) with anti-tropomyosin drug and viability measured using 3-(4,5-dimethylthiazol-2-yl)-2,5-diphenylterazolium bromide MTT. Cell viability was normalized to control (vehicle alone) and dose-response curves, and half maximal effective concentration (EC50) values were determined using Graph Pad Prism 5 (nonlinear regression sigmoidal dose-response variable slope).

[2] = test system: SHEP neuroblastoma (SH-EP) cells; assay: Cell viability assay (MTT), SHEP; conditions: 48 hr treatment
Experimental: as §1

[3] = test system: SK-N-SH neuroblastoma cells; assay: Anti-proliferative assay (cell-titre luminescent), SK-N-SH; conditions: Homo sapiens, 72 hours, luminescence
Experimental: (§2) The ability of compounds 2002, 2009 and 2013-2064 to inhibit the proliferation of cancer cells representative of neuroblastoma, melanoma, prostate cancer, colorectal cancer, non-small cell lung carcinoma, and triple negative breast cancer was assessed. These studies were conducted by contract research (GVK-BIO). Briefly, a pre-determined number of cells as calculated from cell growth assays for each of the cell lines employed were seeded into their respective culture medium (using ATCC culture parameters—http://www.atcc.org) and cultured for 24 h at 37° C. and 5% CO2 in 96-well culture plates. Once attached, each cell line was then exposed to various concentrations of each respective analogue (30, 10, 3, 1, 0.3 and 0.1 μM), cultured for a further 72 hours and exposed to cell-titre luminescent reagent (100 μL/well) for a further 30 minutes). Luminescence was captured using an EnVision multilabel reader and the data for each analogue concentration compared against no treatment control. Cell viability was normalized to control (vehicle alone) and dose-response curves, and half maximal effective concentration (EC50) values were determined using Graph Pad Prism 6 (nonlinear regression sigmoidal dose-response variable slope).

SK-Mel-28 melanoma cells = assay: Anti-proliferative assay (cell-titre luminescent), SK-Mel-28; conditions: Homo sapiens; SK-Mel-28, 72 hours, luminescence
Experimental: as §2

[4] = test system: DU145 prostate cancer cells; assay: Anti-proliferative assay (cell-titre luminescent), DU145; conditions: Homo sapiens, DU-145; DU145, 72 hours, luminescence
Experimental: as §2

[5] = test system: PC3 prostate cancer cells; assay: Anti-proliferative assay (cell-titre luminescent), PC3; conditions: PC3, 72 hours, luminescence
Experimental: as §2

[6] = test system: CaCo2 colorectal cancer cells; assay: Anti-proliferative assay (cell-titre luminescent), CaCo2; conditions: Homo sapiens, Caco-2; CaCo2, 72 hours, luminescence
Experimental: as §2

A549 lung (NSLC) cells = assay: Anti-proliferative assay (cell-titre luminescent), A549; conditions: Homo sapiens; A549, 72 hours, luminescence
Experimental: as §2

[7] = test system: MDA-MB-231 breast cancer cells; assay: Anti-proliferative assay (cell-titre luminescent), MDA-MB-231; conditions: Homo sapiens; MDA-MB-231, 72 hours, luminescence
Experimental: as §2

| Structure (SMILES) | IC50 [1] | IC50 [2] | IC50 [3] | IC50 (SK-Mel-28 melanoma cells) | IC50 [4] | IC50 [5] | IC50 [6] | IC50 (A549 lung (NSLC) cells) | IC50 [7] |
| --- | --- | --- | --- | --- | --- | --- | --- | --- | --- |
| C/C(=C\C(=O)N1CCN(CCc2ccccc2)CC1)c1c(C)n(CCCN(C)C)c2ccccc12 [Compound 2001, (E)-3-(1-(3-(dimethylamino)propyl)-2-methyl-1H-indol-3-yl)-1-(4-phenethylpiperazin-1-yl)but-2-en-1-one] | 1.64 µM | 11.5 µM | – | – | – | – | – | – | – |
| Cc1c(/C=C/C(=O)N2CCN(C(=O)c3ccccc3)CC2)c2ccccc2n1CCCN(C)C [Compound 2004, (E)-1-(4-benzoylpiperazin-1-yl)-3-(1-(3-(dimethylamino)propyl)-2-methyl-1H-indol-3-yl)prop-2-en-1-one] | 32.7 µM | 198 µM | – | – | – | – | – | – | – |
| CCCCN1CCN(C(=O)/C=C/c2c(C)n(CCCN(C)C)c3ccccc23)CC1 [Compound 2005, (E)-1-(4-butylpiperazin-1-yl)-3-(1-(3-(dimethylamino)propyl)-2-methyl-1H-indol-3-yl)prop-2-en-1-one] | 41 µM | 12.9 µM | – | – | – | – | – | – | – |
| CCN(CC)CCCn1c(C)c(C(=O)N2CCN(CCc3ccc(OC)cc3)CC2)c2cc(OC)ccc21 [Compound 2051, (1-(3-(diethylamino)propyl)-5-methoxy-2-methyl-1H-indol-3-yl)(4-(4-methoxyphenethyl)piperazin-1-yl)methanone] | – | – | 10.9 µM | 6 µM | > 30 µM | > 30 µM | > 30 µM | > 30 µM | 10.3 µM |
| CCN(CC)CCCn1c(C)c(C(=O)N2CCN(CCc3ccc4c(c3)OCO4)CC2)c2cc(OC)ccc21 [Compound 2052, (4-(2-(benzo[d][1,3]dioxol-5-yl)ethyl)piperazin-1-yl)(1-(3-(diethylamino)propyl)-5-methoxy-2-methyl-1H-indol-3-yl)methanone] | – | – | 10.9 µM | 5.7 µM | 9.2 µM | 10.9 µM | 16 µM | 11.8 µM | 12.7 µM |
| CCN(CC)CCCn1c(C)c(C(=O)N2CCN(CCc3cccc(F)c3)CC2)c2cc(OC)ccc21 [Compound 2053, (1-(3-(diethylamino)propyl)-5-methoxy-2-methyl-1H-indol-3-yl)(4-(3-fluorophenethyl)piperazin-1-yl)methanone] | – | – | 4.8 µM | 4.7 µM | 13.6 µM | 11 µM | 12.2 µM | 13.5 µM | 12.6 µM |
| CCN(CC)CCCn1c(C)c(C(=O)N2CCN(CCc3cccc(OC)c3)CC2)c2cc(OC)ccc21 [Compound 2054, (1-(3-(diethylamino)propyl)-5-methoxy-2-methyl-1H-indol-3-yl)(4-(3-methoxyphenethyl)piperazin-1-yl)methanone] | – | – | 10.4 µM | 5.4 µM | > 30 µM | 6.9 µM | > 30 µM | 17.8 µM | 11.8 µM |
| CCN(CC)CCCn1c(C)c(C(=O)N2CCN(CCc3ccccc3)CC2)c2cc(OC)ccc21 [Compound 2055, (1-(3-(diethylamino)propyl)-5-methoxy-2-methyl-1H-indol-3-yl)(4-phenethylpiperazin-1-yl)methanone] | – | – | > 30 µM | 1.1 µM | > 30 µM | > 30 µM | > 30 µM | > 30 µM | > 30 µM |
| COc1ccc2c(c1)c(C(=O)N1CCN(CCc3ccc(F)cc3)CC1)c(C)n2CCCN1CCN(C)CC1 [Compound 2056, (4-(4-fluorophenethyl)piperazin-1-yl)(5-methoxy-2-methyl-1-(3-(4-methylpiperazin-1-yl)propyl)-1H-indol-3-yl)methanone] | – | – | 11.2 µM | 4.8 µM | 18.9 µM | 10.8 µM | 10.1 µM | 14.7 µM | 13.9 µM |
| COc1ccc(CCN2CCN(C(=O)c3c(C)n(CCCN4CCN(C)CC4)c4ccc(OC)cc34)CC2)cc1 [Compound 2057, (5-methoxy-2-methyl-1-(3-(4-methylpiperazin-1-yl)propyl)-1H-indol-3-yl)(4-(4-methoxyphenethyl)piperazin-1-yl)methanone] | – | – | 7.2 µM | 4.4 µM | 30 µM | 9 µM | 13.3 µM | 21.1 µM | 7.5 µM |
| COc1ccc2c(c1)c(C(=O)N1CCN(CCc3ccc4c(c3)OCO4)CC1)c(C)n2CCCN1CCN(C)CC1 [Compound 2058, (4-(2-(benzo[d][1,3]dioxol-5-yl)ethyl)piperazin-1-yl)(5-methoxy-2-methyl-1-(3-(4-methylpiperazin-1-yl)propyl)-1H-indol-3-yl)methanone] | – | – | 8 µM | 4.8 µM | 21.1 µM | 12 µM | 10.8 µM | 13.9 µM | 29.8 µM |
| COc1ccc2c(c1)c(C(=O)N1CCN(CCc3cccc(F)c3)CC1)c(C)n2CCCN1CCN(C)CC1 [Compound 2059, (4-(3-fluorophenethyl)piperazin-1-yl)(5-methoxy-2-methyl-1-(3-(4-methylpiperazin-1-yl)propyl)-1H-indol-3-yl)methanone] | – | – | 4.2 µM | 3.8 µM | 10.1 µM | 9.2 µM | 19.6 µM | 10.2 µM | 7 µM |
| COc1cccc(CCN2CCN(C(=O)c3c(C)n(CCCN4CCN(C)CC4)c4ccc(OC)cc34)CC2)c1 [Compound 2060, (5-methoxy-2-methyl-1-(3-(4-methylpiperazin-1-yl)propyl)-1H-indol-3-yl)(4-(3-methoxyphenethyl)piperazin-1-yl)methanone] | – | – | 10.8 µM | 7.5 µM | > 30 µM | > 30 µM | > 30 µM | > 30 µM | 6.1 µM |
| COc1ccc2c(c1)c(C(=O)N1CCN(CCc3ccccc3)CC1)c(C)n2CCCN1CCN(C)CC1 [Compound 2061, (5-methoxy-2-methyl-1-(3-(4-methylpiperazin-1-yl)propyl)-1H-indol-3-yl)(4-phenethylpiperazin-1-yl)methanone] | – | – | > 30 µM | 8.7 µM | > 30 µM | > 30 µM | > 30 µM | > 30 µM | > 30 µM |
| CCOc1ccc2c(c1)c(C(=O)N1CCN(CCc3ccc(F)cc3)CC1)c(C)n2CCCN(C)C [Compound 2062, (1-(3-(dimethylamino)propyl)-5-ethoxy-2-methyl-1H-indol-3-yl)(4-(4-fluorophenethyl)piperazin-1-yl)methanone] | – | – | 20.6 µM | 9 µM | > 30 µM | 13.1 µM | 18.6 µM | > 30 µM | 8.1 µM |
| CCOc1ccc2c(c1)c(C(=O)N1CCN(CCc3ccc(F)cc3)CC1)c(C)n2CCCN(CC)CC [Compound 2063, (1-(3-(diethylamino)propyl)-5-ethoxy-2-methyl-1H-indol-3-yl)(4-(4-fluorophenethyl)piperazin-1-yl)methanone] | – | – | 5.3 µM | 3.5 µM | 13 µM | 7.2 µM | 4.1 µM | 10.9 µM | 3 µM |
| CCOc1ccc2c(c1)c(C(=O)N1CCN(CCc3ccc(F)cc3)CC1)c(C)n2CCCN1CCN(C)CC1 [Compound 2064, (5-ethoxy-2-methyl-1-(3-(4-methylpiperazin-1-yl)propyl)-1H-indol-3-yl)(4-(4-fluorophenethyl)piperazin-1-yl)methanone] | – | – | 4.3 µM | 3.5 µM | 14 µM | 6.9 µM | 29.1 µM | 7.8 µM | 5.8 µM |
